We go through 42 compounds from BindingDB's records for doi:10.7270/Q2M32T6M (Vanderbilt Screening Center for GPCRs, Ion Channels and …, 2009).

The first assay concerns the target T1, Solute carrier family 12 member 5 (Homo sapiens, UniProt Q9H2X9).
T1 sequence (Q9H2X9 whole entry): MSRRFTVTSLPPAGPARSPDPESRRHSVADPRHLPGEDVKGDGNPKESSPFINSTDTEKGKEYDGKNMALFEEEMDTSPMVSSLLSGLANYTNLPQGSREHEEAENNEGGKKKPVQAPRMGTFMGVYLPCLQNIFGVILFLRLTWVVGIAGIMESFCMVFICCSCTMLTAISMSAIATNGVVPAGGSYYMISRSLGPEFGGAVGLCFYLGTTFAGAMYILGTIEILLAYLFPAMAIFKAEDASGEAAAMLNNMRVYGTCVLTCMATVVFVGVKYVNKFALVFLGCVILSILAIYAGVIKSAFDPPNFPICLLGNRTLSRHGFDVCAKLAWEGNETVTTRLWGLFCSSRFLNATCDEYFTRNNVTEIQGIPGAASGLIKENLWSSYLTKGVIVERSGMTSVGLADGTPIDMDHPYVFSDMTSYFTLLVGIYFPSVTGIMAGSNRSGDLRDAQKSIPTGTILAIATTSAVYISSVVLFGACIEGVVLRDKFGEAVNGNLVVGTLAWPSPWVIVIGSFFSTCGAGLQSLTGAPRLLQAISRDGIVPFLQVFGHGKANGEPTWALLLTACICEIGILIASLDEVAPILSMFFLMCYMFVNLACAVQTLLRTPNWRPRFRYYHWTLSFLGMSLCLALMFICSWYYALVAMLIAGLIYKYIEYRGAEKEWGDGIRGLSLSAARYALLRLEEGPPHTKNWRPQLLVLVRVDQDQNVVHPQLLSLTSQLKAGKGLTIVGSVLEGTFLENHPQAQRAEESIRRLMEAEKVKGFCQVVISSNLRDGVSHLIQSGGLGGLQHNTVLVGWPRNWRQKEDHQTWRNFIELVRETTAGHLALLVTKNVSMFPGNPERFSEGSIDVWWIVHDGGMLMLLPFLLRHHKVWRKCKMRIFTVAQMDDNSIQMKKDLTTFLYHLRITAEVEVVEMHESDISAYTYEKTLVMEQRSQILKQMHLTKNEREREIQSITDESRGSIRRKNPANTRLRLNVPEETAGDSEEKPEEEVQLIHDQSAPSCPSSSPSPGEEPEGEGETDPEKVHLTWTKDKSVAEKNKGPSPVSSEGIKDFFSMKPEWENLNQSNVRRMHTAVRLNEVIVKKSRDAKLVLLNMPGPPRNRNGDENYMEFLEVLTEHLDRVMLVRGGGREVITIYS
In words: KCC2 modulator potency by thallium flux, dose response, cell-based, HEK293 KCC2, FluoZin-2 fluorescence (AID 1736).
Conditions: not given
The compound `CCc1ccc(OCCNC(=O)c2ccccc2SCc2ccccc2)cc1` [2-(benzylthio)-N-[2-(4-ethylphenoxy)ethyl]benzamide] displayed an EC50 of 35.2 µM.
Consider `Cc1ccc(Cn2c(SCC(=O)Nc3cc(C)on3)nc3ccccc3c2=O)cc1` [2-[[4-keto-3-(4-methylbenzyl)quinazolin-2-yl]thio]-N-(5-methylisoxazol-3-yl)acetamide], for which the EC50 turned out to be 65.1 µM.
Compound `Fc1cccc(F)c1C=NNC(=S)Nc1cccnc1` [1-[(2,6-difluorobenzylidene)amino]-3-(3-pyridyl)thiourea] displayed an EC50 of 9.24 µM.
The same measure, in the same setting: the result for `O=C(c1cc(COc2c(F)cccc2F)on1)N1CCC(c2ccncc2)CC1` [4-[1-({5-[(2,6-difluorophenoxy)methyl]isoxazol-3-yl}carbonyl)piperidin-4-yl]pyridine] reads 17.9 µM; that for `Cn1c(C(=O)NCCN2CCN(c3ccccc3F)CC2)cc2c(=O)n(C)c3ccccc3c21` [MLS000118132], 1.74 µM.
Same read-out and setting: then `O=C(OC1CCc2ccccc2C1=O)c1ccccc1O` (configuration not stated) [MLS000051417], with 26.5 µM; and `O=C(NC(=S)Nc1nc(-c2cccc([N+](=O)[O-])c2)cs1)c1cc(Cl)ccc1Cl` [2,5-bis(chloranyl)-N-[[4-(3-nitrophenyl)-1,3-thiazol-2-yl]carbamothioyl]benzamide], with 10.8 µM; and `CNc1ccc2oc(C[C@H]3O[C@@]4(CC[C@H]3C)O[C@H]([C@H](C)C(=O)c3ccc[nH]3)[C@H](C)C[C@H]4C)nc2c1C(=O)O` [MLS001056783], with 9.96 µM.
As to `CC12CC3(C)CC(C)(C1)CC(C(=O)NC(=S)N1CCCC1)(C2)C3` [3,5,7-trimethyl-N-pyrrolidin-1-ylcarbothioyl-adamantane-1-carboxamide], the half-maximal effective concentration (EC50) stood at 0.541 µM.
`O=C(CC(Cc1ccccc1)c1ccco1)NC1CCCCC1` (configuration not stated) [MLS000556612] gave an EC50 of 3.03 µM.
The same measure, in the same setting: the result for `O=C(CCSCCc1ccccn1)Nc1ccc(Cc2ccncc2)cc1` [3-(2-pyridin-2-ylethylsulfanyl)-N-[4-(pyridin-4-ylmethyl)phenyl]propanamide] reads 72.4 µM; that for `Cc1nonc1NC(=O)CSc1ccc(-c2ccccc2)nn1` [MLS000074514], 1.56 µM.
`Sc1nnc(CNc2cccc(Cl)c2)o1` [5-[(3-chloroanilino)methyl]-3H-1,3,4-oxadiazole-2-thione] displayed an EC50 of 3.77 µM.
`CC(=O)NCCC(=O)N1CCCC(CNC(=O)c2ccc(-c3ccccc3)cc2)C1` (configuration not stated) [MLS000733794] yielded an EC50 of 38.4 µM.
On the same count and under the same terms, then `Cc1ccc(/C=C2\SC(=S)N(c3c(C)n(C)n(-c4ccccc4)c3=O)C2=O)cc1` [3-(1,5-dimethyl-3-oxo-2-phenyl-2,3-dihydro-1H-pyrazol-4-yl)-5-(4-methylbenzylidene)-2-thioxo-1,3-thiazolidin-4-one], with 2.3 µM; and `Cc1cc([N+](=O)[O-])ccc1NCc1ccccc1` [2-methyl-4-nitro-N-(phenylmethyl)aniline], with 3.75 µM; and `O=C(CSc1nnc(-c2ccc(F)cc2)o1)N1CCN(C(=O)c2ccco2)CC1` [2-[5-(4-Fluoro-phenyl)-[1,3,4]oxadiazol-2-ylsulfanyl]-1-[4-(furan-2-carbonyl)-piperazin-1-yl]-ethanone], with 5.32 µM.
Regarding `NC(=S)NN=C1C(=O)N(Cc2ccc(F)cc2)c2ccccc21` [1-[(Z)-[1-[(4-fluorophenyl)methyl]-2-oxidanylidene-indol-3-ylidene]amino]thiourea], the EC50 turned out to be 7.98 µM.
Same read-out and setting: then `Cc1onc(C(=O)N2CCN(Cc3ccccc3)CC2)c1[N+](=O)[O-]` [(4-benzylpiperazin-1-yl)-(5-methyl-4-nitro-1,2-oxazol-3-yl)methanone], with 6.9 µM; and `COc1ccc(S(=O)(=O)N2CCC(C(=O)N3CCc4ccccc4C3)CC2)cc1C` [2-({1-[(4-methoxy-3-methylphenyl)sulfonyl]-4-piperidinyl}carbonyl)-1,2,3,4-tetrahydroisoquinoline], with 4.98 µM.
Same read-out and setting: then `NC(=O)COc1ccccc1/C=C1/SC(=O)N(CC(=O)N2CCc3ccccc3C2)C1=O` [2-[2-({3-[2-(3,4-dihydro-2(1H)-isoquinolinyl)-2-oxoethyl]-2,4-dioxo-1,3-thiazolidin-5-ylidene}methyl)phenoxy]acetamide], with 10800 µM; and `N#CC(C(=O)c1cccc(F)c1)c1nc2ccccc2s1` (configuration not stated) [(2Z)-2-(3H-1,3-benzothiazol-2-ylidene)-3-(3-fluorophenyl)-3-keto-propionitrile], with 7.39 µM.
Same read-out and setting: then `C=C(C)Cn1c(N2CCC(Cc3ccccc3)CC2)nc2c1c(=O)[nH]c(=O)n2C` [3-methyl-7-(2-methylprop-2-enyl)-8-[4-(phenylmethyl)-1-piperidinyl]purine-2,6-dione], with 15.8 µM; and `CS(=O)(=O)N(CC(=O)N1CCN(c2ccccc2)CC1)c1cccc(Br)c1` [MLS000110474], with 3.74 µM; and `CCn1nnnc1SCC(=O)Nc1nc(-c2cccs2)cs1` [2-(1-Ethyl-1H-tetrazol-5-ylsulfanyl)-N-(4-thiophen-2-yl-thiazol-2-yl)-acetamide], with 3.74 µM.
Compound `Cc1ccccc1-c1nc(C[S+]([O-])CC(=O)NCc2ccccc2)c(C)o1` (configuration not stated) [2-[[5-methyl-2-(2-methylphenyl)-1,3-oxazol-4-yl]methylsulfinyl]-N-(phenylmethyl)ethanamide] registered an EC50 of 8.09 µM.
`CCCCCN1C/C=C\C(c2ccc(OC)cc2)N(Cc2ccc(F)cc2)C(=O)C1` (configuration not stated) [(6Z)-1-amyl-4-(4-fluorobenzyl)-5-(4-methoxyphenyl)-5,8-dihydro-2H-1,4-diazocin-3-one] had an EC50 of 8.78 µM. The EC50 values of the last two compounds are within 1.5-fold of each other.
With `O=[N+]([O-])c1ccc(CSc2nnc(SCc3ccccc3)s2)cc1` [2-(benzylthio)-5-[(4-nitrobenzyl)thio]-1,3,4-thiadiazole], the response was half-maximal at 2.06 µM (EC50).
In the case of `N#Cc1c(NC(=O)CSc2nc(N)cc(=O)[nH]2)sc2c1CCCCCC2` [2-[(6-amino-4-oxo-1H-pyrimidin-2-yl)sulfanyl]-N-(3-cyano-4,5,6,7,8,9-hexahydrocycloocta[b]thiophen-2-yl)acetamide], the EC50 turned out to be 233 µM.
On the same count and under the same terms, then `O=C(C1CCN(S(=O)(=O)c2cccc3nsnc23)CC1)N1CCc2ccccc2C1` [2-{[1-(2,1,3-benzothiadiazol-4-ylsulfonyl)piperidin-4-yl]carbonyl}-1,2,3,4-tetrahydroisoquinoline], with 23.8 µM; and `O=C(c1ccc(S(=O)(=O)c2cccc(Cl)c2)c([N+](=O)[O-])c1)N1CCN(c2ccccn2)CC1` [1-{4-[(3-chlorophenyl)sulfonyl]-3-nitrobenzoyl}-4-pyridin-2-ylpiperazine], with 2.55 µM; and `CN(C)S(=O)(=O)c1ccc(Cl)c(C(=O)Nc2nc3ccccc3[nH]2)c1` [SMR000370637], with 4.52 µM.
In the case of `N#Cc1nc(Cc2cccc3ccccc23)oc1NCCN1CCOCC1` [5-(2-Morpholin-4-yl-ethylamino)-2-naphthalen-1-ylmethyl-oxazole-4-carbonitrile], a half-maximal response (EC50) required 9.4 µM. Against the preceding compound, the EC50 is about 2.1-fold higher.
On the same count and under the same terms, then `O=C(Cn1cnc2c(nnn2-c2ccccc2)c1=O)NCCc1ccccc1` [2-(7-keto-3-phenyl-triazolo[4,5-d]pyrimidin-6-yl)-N-phenethyl-acetamide], with 2.52 µM; and `S=C(NCCc1ccccc1)NN=Cc1cccc(Cl)c1Cl` [1-[(2,3-dichlorobenzylidene)amino]-3-phenethyl-thiourea], with 22.7 µM; and `Cc1ccc(-c2n[nH]c(=S)n2NC=CCc2ccccc2[N+](=O)[O-])cc1`, with 1.28 µM.
On the same count and under the same terms, the result for `N#CC1=C(SCc2ccccc2)N=C(N)C(C#N)C12CCCCC2` (configuration not stated) [2-azanyl-4-(phenylmethylsulfanyl)-3-azaspiro[5.5]undeca-1,4-diene-1,5-dicarbonitrile] reads 11.9 µM.
Still for that read-out and setting: then `Cc1nn(-c2nc3ccccc3[nH]2)c(N)c1-c1ccccc1` [MLS000063763], with 24.4 µM.

Staying with this assay, now noted: inactive by the depositor's call.
`CCOC(=S)N=C(NS(=O)(=O)c1ccc(C)cc1)c1ccccc1` [MLS000579749]: the EC50 came out at 24.9 µM.
The same measure, in the same setting: the result for `C=CCN(c1ccc(OC)cc1)S(=O)(=O)c1ccc(Cl)c(C(=O)OCC(=O)NC2CC2)c1` [2-chloro-5-[(4-methoxyphenyl)-prop-2-enylsulfamoyl]benzoic acid [2-(cyclopropylamino)-2-oxoethyl] ester] reads 6.31 µM; that for `COc1cc(OC)c(C(=O)/C=C/c2ccccc2)c(O)c1O` [(E)-1-(2,3-dihydroxy-4,6-dimethoxy-phenyl)-3-phenyl-prop-2-en-1-one], 486 µM; that for `Cc1ccc(C=NNC(=S)Nc2cccc(S(=O)(=O)N(C)C)c2)o1`, 16.6 µM.
